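Where inhibition never reached the appropriate level, the endpoint shown equals the highest concentration tested. Otherwise, values were interpolated linearly from a five-concentration, 48-hour dose response in 96-well plates. Abbreviation: GI50, concentration required for 50% inhibition of growth. Definition used: TGI = concentration required for complete inhibition of growth.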
Legend:
Test in all cases: NCI tumour cell line growth inhibition, 48 h
EKVX NSCLC = test system: EKVX NSCLC
DU-145 prostate = test system: DU-145 prostate
SK-MEL-28 melanoma = test system: SK-MEL-28 melanoma
UO-31 renal = test system: UO-31 renal
HL-60(TB) leukemia = test system: HL-60(TB) leukemia
NCI-H522 lung = test system: NCI-H522 lung
HCT-116 colon = test system: HCT-116 colon
KM12 colon = test system: KM12 colon
NCI/ADR-RES ovarian = test system: NCI/ADR-RES ovarian
BT-549 breast = test system: BT-549 breast

| Structure (SMILES) | GI50 (EKVX NSCLC) | TGI (EKVX NSCLC) | GI50 (DU-145 prostate) | TGI (DU-145 prostate) | GI50 (SK-MEL-28 melanoma) | TGI (SK-MEL-28 melanoma) | GI50 (UO-31 renal) | TGI (UO-31 renal) | GI50 (HL-60(TB) leukemia) | TGI (HL-60(TB) leukemia) | GI50 (NCI-H522 lung) | TGI (NCI-H522 lung) | GI50 (HCT-116 colon) | TGI (HCT-116 colon) | GI50 (KM12 colon) | TGI (KM12 colon) | GI50 (NCI/ADR-RES ovarian) | TGI (NCI/ADR-RES ovarian) | GI50 (BT-549 breast) | TGI (BT-549 breast) |
| --- | --- | --- | --- | --- | --- | --- | --- | --- | --- | --- | --- | --- | --- | --- | --- | --- | --- | --- | --- | --- |
| O=C1c2cccc3c(N4CCN(c5ccc6c7c(cccc57)C(=O)N(CCN5CCNCC5)C6=O)CC4)ccc(c23)C(=O)N1CCN1CCNCC1 | 20.9 µM | 47.1 µM | 14.1 µM | 40.6 µM | 17.1 µM | 34.4 µM | 12.8 µM | 33 µM | 4.19 µM | 20.6 µM | 18 µM | 44.2 µM | 3.8 µM | 42.9 µM | 12 µM | 30.5 µM | 13.8 µM | 32.6 µM | 19 µM | 39.3 µM |
| O=S(=O)(Nc1ccc(Cl)c(C(F)(F)F)c1)c1ccc(-c2cnc(C3CC3)o2)cc1 | 1.34 µM | 9.29 µM | 1.28 µM | 10.6 µM | 1.17 µM | 5.79 µM | 0.871 µM | 6.25 µM | 0.261 µM | 1.49 µM | 0.149 µM | 3.25 µM | 0.187 µM | 4.14 µM | 0.187 µM | 7.36 µM | 0.163 µM | 2.43 µM | 0.128 µM | 4.79 µM |
| N#CC1=C(N)Oc2c(sc3c(F)cccc23)C1c1ccc([N+](=O)[O-])cc1 (stereo unspecified) | 0.432 µM | 2.63 µM | 0.34 µM | 1.38 µM | 0.34 µM | 1.97 µM | 0.197 µM | 1.03 µM | 0.212 µM | 0.806 µM | 0.0776 µM | 0.725 µM | 0.169 µM | 1.33 µM | 0.141 µM | 1.27 µM | 0.0589 µM | 0.734 µM | 0.242 µM | 1.3 µM |
| CCOC(=O)c1cc(C(=O)c2cc(OC)cc(OC)c2)n2ncccc12 | 4.74 µM | > 100 µM | 3.96 µM | > 100 µM | 7.36 µM | > 100 µM | 5.68 µM | > 100 µM | 1.38 µM | 4.66 µM |  |  |  |  |  |  | 0.463 µM | 61.1 µM | 1.22 µM | > 100 µM |
| N#Cc1cccc(Nc2nccc(-c3cnn4ncccc34)n2)c1 |  |  | 0.00661 µM | 3.46 µM | 0.00408 µM | 0.0125 µM | 0.00719 µM | > 25 µM | 0.00363 µM | < 0.0129 µM | 0.00752 µM | 0.0394 µM | 0.00443 µM | 1.34 µM | 0.00632 µM | 0.0263 µM | 0.00697 µM |  | 0.00559 µM | 0.017 µM |
| COc1ccc(/C=N/NC(=O)O)cc1 |  | > 100 µM |  | > 100 µM |  | > 100 µM |  | > 100 µM |  |  |  | > 100 µM |  | > 100 µM |  | > 100 µM |  | > 100 µM |  | > 100 µM |
| O=C=Nc1ccc(Cc2ccc(N=C=O)cc2)cc1 (tested in a mixture with another compound) | > 25 µg/mL | > 25 µg/mL | > 25 µg/mL | > 25 µg/mL | > 25 µg/mL | > 25 µg/mL | > 25 µg/mL | > 25 µg/mL |  |  | > 25 µg/mL | > 25 µg/mL | > 25 µg/mL | > 25 µg/mL | > 25 µg/mL | > 25 µg/mL | > 25 µg/mL | > 25 µg/mL | > 25 µg/mL | > 25 µg/mL |
| CSC(=S)NN=C1CCCCC1 |  | > 100 µM |  | > 100 µM |  | > 100 µM |  | > 100 µM |  |  |  | 88.7 µM |  | > 100 µM |  | > 100 µM |  | 60.6 µM |  | > 100 µM |
| O=C1C(Nc2ccccn2)=C(I)C(=O)c2ncccc21 | 1.62 µM | 3.3 µM | 0.367 µM | 1.42 µM | 1.68 µM | 3.18 µM |  |  | 1.63 µM | 3.77 µM | 0.725 µM | 2.5 µM | 0.372 µM | 1.61 µM | 1.65 µM | 3.42 µM | 1.25 µM | 4.6 µM | 1.54 µM | 3.14 µM |
| O=C(N/N=C/c1cc2ccccc2c2ccccc12)c1cc(O)c(O)c(O)c1 |  |  | 5.79 µM | 27 µM | 3.57 µM | 15.1 µM | 2.64 µM | 16.5 µM | 3.54 µM | 15.2 µM | 2.06 µM | 5.64 µM | 3.17 µM | 12.4 µM | 8.24 µM | 22.9 µM | 12.4 µM | > 100 µM | 3.74 µM | 16.8 µM |
| N#Cc1c(NC(=O)CCC(=O)O)ccc2ccccc12 |  | > 100 µM |  | > 100 µM |  | > 100 µM |  | > 100 µM |  |  |  | > 100 µM |  | > 100 µM |  | > 100 µM |  | > 100 µM |  | > 100 µM |
| C=CC1=C(C)C2=NC1=CC1=NC(=C(CC)/C1=C/O)C=C1C=C3C(=O)C(C(=O)OC)C(=C4NC(=C2)C(C)C4CCC(=O)OC/C=C(\C)CCCC(C)CCCC(C)CCCC(C)C)C3=N1 (stereo unspecified) (tested in a mixture with another compound) |  | > 100 µM |  | > 100 µM |  | > 100 µM |  | > 100 µM |  |  |  | 73 µM |  | > 100 µM |  | > 100 µM |  | > 100 µM |  | > 100 µM |

Source: PubChem BioAssay (NCI)
